{
  "source": "patent US20180110824A1",
  "about": "“Macrocyclic Modulators of the Ghrelin Receptor” (Ocera Therapeutics, Inc., priority 2016, published 2018)",
  "key": {"[1]": {"biological_target": "T1, human ghrelin receptor (hGHS-R1a) (Homo sapiens, UniProt Q92847)", "T1 construct": "host or cells: CHO-K1 co-expressing Gα16 and mitochondrially targeted aequorin", "T1 sequence (Q92847 whole entry)": "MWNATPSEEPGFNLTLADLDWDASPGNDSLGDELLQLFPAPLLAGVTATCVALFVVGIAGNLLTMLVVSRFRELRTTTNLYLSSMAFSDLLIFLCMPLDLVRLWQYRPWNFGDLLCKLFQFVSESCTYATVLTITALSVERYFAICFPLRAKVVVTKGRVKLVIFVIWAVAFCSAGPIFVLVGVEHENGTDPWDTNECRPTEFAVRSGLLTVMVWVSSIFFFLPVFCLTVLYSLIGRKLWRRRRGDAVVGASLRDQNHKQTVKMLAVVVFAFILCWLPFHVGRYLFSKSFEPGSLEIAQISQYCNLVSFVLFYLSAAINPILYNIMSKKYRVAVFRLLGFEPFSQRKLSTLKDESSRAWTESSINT", "test": "Aequorin functional assay (ghrelin receptor), CHO-K1 cells co-expressing Gα16 and aequorin", "format": "cell-based", "settings": "read-out: EC50", "description": "This cell line is typically constructed by transfection of the human ghrelin receptor into CHO-K1 cells co-expressing Gα16 and the mitochondrially targeted Aequorin (Ref #ES-WT-A5). • 1. […] Assay buffer: DMEM (Dulbecco's Modified Eagles Medium) containing 0.1% BSA (bovine serum albumin; pH 7.0). • 3. Coelenterazine (Molecular Probes, Leiden, The Netherlands). • Final test concentrations (N=8) for compounds of the invention: 10, 1, 0.3, 0.1, 0.03, 0.01, 0.003, 0.001 μM.\nStock solutions of compounds (10 mM in 100% DMSO) were provided frozen on dry ice and stored at −20° C. prior to use. […] Assay plates were then prepared by appropriate dilution in DMEM medium containing 0.1% BSA. Under these conditions, the maximal final DMSO concentration in the assay was <0.6%.\nAequoScreen™ cells were collected from culture plates with Ca^2+ and Mg^2+-free phosphate buffered saline (PBS) supplemented with 5 mM EDTA, pelleted for 2 min at 1000×g re-suspended in DMEM—Ham's F12 containing 0.1% BSA at a density of 5×10^6 cells/mL, and incubated O/N at rt in the presence of 5 μM coelenterazine. After loading, cells were diluted with assay buffer to a concentration of 5×10^5 cells/mL.\nFor agonist testing, 50 μL of the cell suspension was mixed with 50 μL of the appropriate concentration of test compound or ghrelin (reference agonist) in 96-well plates (duplicate samples). Ghrelin (reference agonist) was tested at several concentrations concurrently with the test compounds in order to validate the experiment. The emission of light resulting from receptor activation in response to ghrelin or test compounds was recorded using the Hamamatsu FDSS 6000 reader (Hamamatsu Photonics K.K., Japan).\nResults were expressed as Relative Light Units (RLU). […] EC50, Hill slope and % Emax values are reported.\n• 1. Assay performed on CHO-K1 cells expressing the transfected, cloned human ghrelin receptor (hGHS-R1a) and Gα16. • 2. Suspended cells incubated O/N with coelenterazine. • 3. Stimulation of hGHS-R1a activates Gα16, causing […] Ca2+ release which ultimately leads to the oxidation of coelenterazine and the emission of a quantitative luminescent signal. • 4. Ghrelin was used as the positive control. • 5."}, "[2]": {"tested_on": "gastric emptying in fasted rats", "test": "Gastric emptying in fasted rats (phenol red methylcellulose meal)", "format": "in vivo, rat", "settings": "i.v.", "description": "To examine the effects of compounds of the invention in a model for gastroparesis, compounds were evaluated for possible effects on gastric emptying in fasted rats.\nGHRP-6 and test samples were dissolved in vehicle of 9% HPBCD/0.9% NaCl. Immediately following oral administration of methylcellulose (2%) containing phenol red (0.05%) (2 mL/rat), test substances or vehicle (9% HPBCD/0.9% NaCl) were each administered intravenously (i.v.) at a dosing volume of 5 mL/kg.\nMale Wistar rats were provided by LASCO (A Charles River Licensee Corporation, Taiwan). Space allocation for 6 animals was 45×23×15 cm. Animals were housed in APEC® cages and maintained in a controlled temperature (22° C.-24° C.) and humidity (60% -80%) environment with 12 h light, 12 h dark cycles for at least one week in the laboratory prior to being used. Free access to standard lab chow for rats (Lab Diet, Rodent Diet, PMI Nutrition International, USA) and tap water was granted. All aspects of this work including housing, experimentation and disposal of animals were performed in general accordance with the Guide for the Care and Use of Laboratory Animals (National Academy Press, Washington, D.C., 1996).\nTest substances were each administered intravenously to a group of 5 O/N-fasted Wistar derived male rats weighing 200±20 g immediately after methylcellulose (2%) containing phenol red (0.05%) was administered orally at 2 mL/animal. The animals were then sacrificed 15 minutes later. The stomach was immediately removed, homogenized in 0.1 N NaOH (5 mL) and centrifuged. Following protein precipitation by 20% trichloroacetic acid (0.5 mL)and re-alkalization of the supernatant with 0.1 N NaOH, total phenol red remaining in the stomach was determined by a colorimetric method at 560 nm. A 30 percent or more (≥30%) increase in gastric emptying, detected as the decrease in phenol red concentration in the stomach relative to the vehicle control group, is considered significant.\n• 1. Overnight-fasted rats (male Wistar, ˜200 g, N=5/group) were given a meal of methylcellulose (2%) by intragastric gavage. The meal was labeled with phenol red (0.05%). • 2. […] Animals were sacrificed 15 minutes later; the stomach was immediately removed and homogenized in 0.1 N NaOH and centrifuged. • 4. Total phenol red remaining in the stomach was quantified by a colorimetric method at 560 nm. • 5. A >30% increase in gastric emptying, detected based on the phenol red concentration in comparison to the control group, is considered significant."}},
  "note": "Read-outs that look alike come from different tables or passages of the source.",
  "data": [
    {"smiles": "CC1C(=O)NC(Cc2ccc(F)cc2)C(=O)NCCCc2ccccc2O[C@H](C)CNC(C2CC2)C(=O)N1C", "note": "(stereo partly shown) [compound 298]", "values": [
      {"measurement": "EC50", "setting": "[1]; Table 4, functional (agonist) activity, TFA salts unless otherwise noted", "value": "1 to 100", "unit": "nM"},
      {"measurement": "EC50", "setting": "[1]; activation of hGHS-R1a, FIG. 11", "value": 25, "unit": "nM"},
      {"measurement": "gastric emptying of a meal in naïve rat", "setting": "[2]; FIGS. 14A and 14B", "value": "caused significant gastric emptying in a dose-dependent manner"},
      {"measurement": "potency superior to metoclopramide in gastric emptying", "setting": "[2]; naïve rats, FIG. 14B", "value": "~100", "unit": "fold"}
    ]}
  ]
}
